Experiments:
[1] = system: ventral pallidal neurons; test: Electrophysiology of ventral pallidal neurons, i.v. METH dose-response in chloral hydrate-anesthetized rats; format: in vivo, rat
Procedure: Based on the biochemical results and because the ventral pallidum contains one of the highest concentrations of 5-HT in the brain, electrophysiological evaluations of this region in rats behaviorally sensitized to METH were conducted (with a 5-day once daily treatment of 2.5 mg/kg). The acute challenge was intravenously administered METH (via a tail vein cannula) as previously used by T. C. Napier's lab ^e.g., [34] where the drug is given in a cumulative dosing fashion such that each dose, administered in 2 min-intervals, essentially doubles the previous dose. METH was tested using a range of 0.06-4.0 mg/kg in saline vehicle. […] Moreover, this approach establishes if systemic administration of METH, in doses that include those producing behavioral sensitization, are sufficient promote sensitized cellular responding and thus allows for direct comparisons of cellular responding to behavioral outcomes. After a 3-day withdrawal, the ability of intravenously administered METH or 1-(2,5-dimethoxy-4-iodophenyl)-2-aminopropane (DOI) to increase ventral pallidal cell firing was enhanced in chloral hydrate-anesthetized rats, as shown by a leftward shift in the dose-response curve with a […] and an increase in response efficacy for both agonists (FIG. 16) and this occurred without any changes in the portion of neurons showing a rate increase or decrease to the acute METH challenge.
Electrophysiological assessment of the ventral pallidum was also conducted 30 days after repeated METH. […] For each experiment, an i.v. METH dose-response curve (METH was tested using a range of 0.06-2.0 mg/kg in saline vehicle) was generated for one ventral pallidal neuron per rat at 30 days withdrawal from repeated METH. Based on the analysis of curves where there was an excitatory effect of i.v. METH on ventral pallidal neurons (171 animals), there was a diminished excitatory effect of i.v. METH in the ventral pallidum of rats that were pretreated with METH only. This is illustrated by both the curves and corresponding Emax data in FIG. 17. This decrease only at long-term withdrawal mirrors the reduction seen in pallidal pCREB only after 14, but not at 3 day withdrawal from repeated METH (see Example III).

[2] = system: METH-sensitized rats; test: Reversal of METH-induced behavioral sensitization by 5-HT2A/2C antagonists (motor activity after acute METH challenge); format: in vivo, rat
Excerpt: Automation of observational evaluations was accomplished using computerized small animal monitors (AccuScan Instr. Inc., Columbus, Ohio). […] One feature of drug-induced behavioral sensitization is heterogeneity of motor responses and the AccuScan monitors quantify numerous behavioral indices. This is a critical point for the motor profile is exquisitely related to METH dose, the drug history of the rat and observation time. After 3- or 31-days of withdrawal from repeated METH injections, rats were allowed to achieve baseline motor activity with a 30 min habituation period, challenged with 1 mg/kg sc METH and monitored for 90 min.
Multiple 5-HT2A/2C antagonists with differing pharmacological profiles were tested for their ability to ameliorate METH-induced behavioral sensitization when administered after sensitization has developed. […] The doses were selected based on the antagonists' ability to block 5-HT2A- and 5-HT2C-mediated activity and their pharmacokinetic profiles.

CN1CCN2c3ncccc3Cc3ccccc3[C@@H]2C1 (racemic) [mirtazapine, 1,2,3,4,10,14b-hexahydro-2-methyl-pyrazino[2,1-a]pyrido[2,3-c]benzazepine]
Emax of Firing Rate Increases of Acute Meth ([1]; METH days 1-5, then antagonist, tested 31 days after last METH): 251% ± 21% (n = 5)
Emax of Firing Rate Increases of Acute Meth ([1]; Sal days 1-5, then antagonist, tested 31 days after last injection): 240% ± 44% (n = 5)
effect of repeated METH on response of ventral pallidal neurons to acute METH challenge ([1]; after 30 days withdrawal): reversal
vertical movement suppression seen in METH-pretreated rats ([2]; mirtazapine 5 mg/kg x 15 days): attenuation of the vertical movement suppression
decreases in total distance traveled and time spent ambulating induced by METH pretreatments ([2]; mirtazapine 5 mg/kg x 15 days, data not shown): attenuated the decreases
horizontal activity ([2]; mirtazapine 5 mg/kg x 15 days, first 60 min after acute METH challenge): slight attenuation
potentiation of METH-induced sensitization for any assessed behavior ([2]; mirtazapine daily 5 mg/kg x 15 days): did not potentiate
overall attenuation of METH-sensitized responses ([2]; mirtazapine daily 5 mg/kg x 15 days, M-F): greatest overall attenuation
mirtazapine+saline group vs saline+saline pretreated rats ([2]; mirtazapine daily 5 mg/kg x 15 days, saline-pretreated): did not differ

From US20060035889A1, “Treatment for methamphetamine addiction and reduction of methamphetamine use using serotonin antagonists” (priority 2004, published 2006)
